Patent publication US8802700B2 (Vertex Pharmaceuticals Incorporated, priority 2010, dated 2014)

Molecular target: T1, ΔF508-CFTR (Homo sapiens, UniProt P13569, DEL508-508)
T1 construct: expressed in transfected cells
Experiment: Membrane potential optical assay (FRET voltage-sensor dyes, VIPR), identification of potentiator compounds
Assay type: cell-based
Details: Table 3; assay not given
Summary of the method: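 Potentiator screen measured membrane potential via FRET between CC2-DMPE donor and DiSBAC2(3), read on VIPR II. Compound went in with the first addition of chloride-free gluconate bath; cells were ΔF508-CFTR-expressing NIH3T3 mouse fibroblasts, temperature-corrected at 27 °C for 24 h.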

T1 sequence (P13569 with tags, fused parts or gaps DEL508-508): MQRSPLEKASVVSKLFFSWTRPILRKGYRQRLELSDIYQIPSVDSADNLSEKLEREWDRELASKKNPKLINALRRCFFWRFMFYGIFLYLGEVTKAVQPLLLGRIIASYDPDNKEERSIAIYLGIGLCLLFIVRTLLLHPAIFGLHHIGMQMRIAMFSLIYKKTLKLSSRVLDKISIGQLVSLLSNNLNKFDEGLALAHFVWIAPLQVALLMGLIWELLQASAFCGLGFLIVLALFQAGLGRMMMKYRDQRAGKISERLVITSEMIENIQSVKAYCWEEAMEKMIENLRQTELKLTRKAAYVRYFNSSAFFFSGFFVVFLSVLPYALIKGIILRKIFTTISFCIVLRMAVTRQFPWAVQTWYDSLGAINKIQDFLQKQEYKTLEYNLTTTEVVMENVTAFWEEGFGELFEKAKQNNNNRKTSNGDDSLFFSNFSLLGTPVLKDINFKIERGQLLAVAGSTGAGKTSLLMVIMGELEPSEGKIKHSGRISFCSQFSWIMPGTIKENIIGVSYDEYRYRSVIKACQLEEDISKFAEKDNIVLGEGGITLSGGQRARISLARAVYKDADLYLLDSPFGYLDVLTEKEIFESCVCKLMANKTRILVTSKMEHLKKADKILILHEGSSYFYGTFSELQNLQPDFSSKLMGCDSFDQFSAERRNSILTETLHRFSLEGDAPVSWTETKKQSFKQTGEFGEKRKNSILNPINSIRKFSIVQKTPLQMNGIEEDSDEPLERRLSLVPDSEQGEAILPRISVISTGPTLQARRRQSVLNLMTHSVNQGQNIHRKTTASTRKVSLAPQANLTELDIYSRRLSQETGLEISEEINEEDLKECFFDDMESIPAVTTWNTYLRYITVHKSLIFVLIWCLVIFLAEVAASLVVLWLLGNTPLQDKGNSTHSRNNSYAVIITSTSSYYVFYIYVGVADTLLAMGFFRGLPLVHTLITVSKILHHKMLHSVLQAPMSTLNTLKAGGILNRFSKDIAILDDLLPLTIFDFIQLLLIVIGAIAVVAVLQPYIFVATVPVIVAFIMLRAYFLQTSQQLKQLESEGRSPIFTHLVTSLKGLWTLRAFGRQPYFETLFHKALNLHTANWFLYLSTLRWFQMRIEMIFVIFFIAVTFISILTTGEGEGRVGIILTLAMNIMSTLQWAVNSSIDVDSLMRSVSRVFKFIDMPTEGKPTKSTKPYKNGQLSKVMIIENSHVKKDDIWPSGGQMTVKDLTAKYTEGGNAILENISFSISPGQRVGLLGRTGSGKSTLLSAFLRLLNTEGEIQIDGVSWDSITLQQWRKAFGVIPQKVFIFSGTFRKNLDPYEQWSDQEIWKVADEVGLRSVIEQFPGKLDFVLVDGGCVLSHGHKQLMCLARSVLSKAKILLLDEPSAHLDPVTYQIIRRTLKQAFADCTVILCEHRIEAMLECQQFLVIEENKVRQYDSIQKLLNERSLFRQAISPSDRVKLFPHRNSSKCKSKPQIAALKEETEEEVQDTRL

Row | EC50 [µM] | Compound
1 | < 10 | N#CCc1ccc(-c2ccccc2NC(=O)c2c[nH]c3ccccc3c2=O)cc1 [Compound 333, N-[2-[4-(cyanomethyl)phenyl]phenyl]-4-oxo-1H-quinoline-3-carboxamide]
2 | < 10 | COC(=O)c1cccc(-c2ccccc2NC(=O)c2c[nH]c3ccccc3c2=O)c1 [Compound 68, 3-[2-[(4-oxo-1H-quinolin-3-yl)carbonylamino]phenyl]benzoic acid methyl ester]

Same assay, conditions: Table 3; assay not given; read-out: % Activity (% Efficacy, relative efficacy)

Row | Emax [%] | Compound
3 | 25 to 100 | Cc1cccc2[nH]cc(C(=O)Nc3ccc(OC(C)C)c(O)c3)c(=O)c12 [Compound 701, N-(3-hydroxy-4-isopropoxy-phenyl)-5-methyl-4-oxo-1H-quinoline-3-carboxamide]
4 | 25 to 100 | O=C(Nc1ccc(N2CC[C@@H](O)C2)cc1C(F)(F)F)c1c[nH]c2ccccc2c1=O [Compound 705, (R)-N-(4-(3-hydroxypyrrolidin-1-yl)-2-(trifluoromethyl)phenyl)-4-oxo-1,4-dihydroquinoline-3-carboxamide]
5 | 25 to 100 | Cc1cccc2[nH]cc(C(=O)Nc3ccc(N4CCC(C)C4)cc3C(F)(F)F)c(=O)c12 (stereo not drawn) [Compound 546, 5-methyl-N-[4-(3-methylpyrrolidin-1-yl)-2-(trifluoromethyl)phenyl]-4-oxo-1H-quinoline-3-carboxamide]
6 | 25 to 100 | COc1ccc2[nH]cc(C(=O)Nc3ccc(N4CCC(C)(C)C4)cc3C(F)(F)F)c(=O)c2c1 [Compound 504, N-[4-(3,3-dimethylpyrrolidin-1-yl)-2-(trifluoromethyl)phenyl]-6-methoxy-4-oxo-1H-quinoline-3-carboxamide]
7 | 25 to 100 | O=C(Nc1ccccc1-c1ccccc1)c1c[nH]c2cc(C(F)(F)F)ccc2c1=O [Compound 469, 4-oxo-N-(2-phenylphenyl)-7-(trifluoromethyl)-1H-quinoline-3-carboxamide]
8 | 25 to 100 | O=C(Nc1ccc(N2CCCC2)cc1C(F)(F)F)c1c[nH]c2ccc(F)cc2c1=O [Compound 562, 6-fluoro-4-oxo-N-[4-pyrrolidin-1-yl-2-(trifluoromethyl)phenyl]-1H-quinoline-3-carboxamide]
9 | 25 to 100 | Cc1cccc2[nH]cc(C(=O)Nc3cc4[nH]ccc4cc3C(F)(F)F)c(=O)c12 [Compound 661, 5-methyl-4-oxo-N-[5-(trifluoromethyl)-1H-indol-6-yl]-1H-quinoline-3-carboxamide]
10 | 25 to 100 | O=C(Nc1ccc(N2CCN(CCO)CC2)cc1C(F)(F)F)c1c[nH]c2ccccc2c1=O [Compound 673, N-[4-[4-(2-hydroxyethyl)piperazin-1-yl]-2-(trifluoromethyl)phenyl]-4-oxo-1H-quinoline-3-carboxamide]
11 | 25 to 100 | CC(C)(C)c1ccc(NC(=O)c2c[nH]c3ccc(F)cc3c2=O)cc1F [Compound 527, 6-fluoro-N-(3-fluoro-4-tert-butyl-phenyl)-4-oxo-1H-quinoline-3-carboxamide]
12 | < 25 | O=C(Nc1ccc(F)cn1)c1c[nH]c2ccccc2c1=O [Compound 477, N-(5-fluoro-2-pyridyl)-4-oxo-1H-quinoline-3-carboxamide]
13 | 25 to 100 | O=C(Nc1ccc(C(F)(F)F)c(O)c1)c1c[nH]c2cccc(O)c2c1=O [Compound 700, 5-hydroxy-N-[3-hydroxy-4-(trifluoromethyl)phenyl]-4-oxo-1H-quinoline-3-carboxamide]
14 | < 25 | CCc1cccc2c(=O)c(C(=O)Nc3ccc(C(C)C)cc3C(F)(F)F)c[nH]c12 [Compound 682, 8-ethyl-N-[4-isopropyl-2-(trifluoromethyl)phenyl]-4-oxo-1H-quinoline-3-carboxamide]
15 | 25 to 100 | O=C(Nc1ccc(N2CCCCC2)cc1C(F)(F)F)c1c[nH]c2ccccc2c1=O [Compound 686, 4-oxo-N-[4-(1-piperidyl)-2-(trifluoromethyl)phenyl]-1H-quinoline-3-carboxamide]
16 | 25 to 100 | O=C(Nc1ccc(N2CCC[C@H]2C(=O)O)cc1C(F)(F)F)c1c[nH]c2ccccc2c1=O [Compound 567, (S)-1-[4-[(4-oxo-1H-quinolin-3-yl)carbonylamino]-3-(trifluoromethyl)phenyl]pyrrolidine-2-carboxylic acid]

Second part, the molecule before the results:

Row | Compound | Emax [%]
17 | COc1ccc(Cl)cc1-c1cc2cc[nH]c2cc1NC(=O)c1c[nH]c2ccccc2c1=O [Compound 1, N-[5-(5-chloro-2-methoxy-phenyl)-1H-indol-6-yl]-4-oxo-1H-quinoline-3-carboxamide] | 25 to 100
18 | CC1(C)CCCNc2cc(NC(=O)c3c[nH]c4ccccc4c3=O)ccc21 [Compound 35, 1,4-dihydro-N-(2,3,4,5-tetrahydro-5,5-dimethyl-1H-benzo[b]azepin-8-yl)-4-oxoquinoline-3-carboxamide] | 25 to 100
19 | N#CCc1ccc(-c2ccccc2NC(=O)c2c[nH]c3ccccc3c2=O)cc1 [Compound 333, N-[2-[4-(cyanomethyl)phenyl]phenyl]-4-oxo-1H-quinoline-3-carboxamide] | 25 to 100
20 | O=C(Nc1ccc(C(F)(F)F)cn1)c1c[nH]c2ccccc2c1=O [Compound 74, 4-oxo-N-[5-(trifluoromethyl)-2-pyridyl]-1H-quinoline-3-carboxamide] | < 25
21 | O=C(Nc1ccccc1-c1csc2ccccc12)c1c[nH]c2ccccc2c1=O [Compound 417, N-(2-(benzo[b]thiophen-3-yl)phenyl)-1,4-dihydro-4-oxoquinoline-3-carboxamide] | 25 to 100
22 | O=C(Nc1cc(Cl)cc(NS(=O)(=O)CCN2CCOCC2)c1)c1c[nH]c2ccccc2c1=O [Compound 46, N-[3-chloro-5-(2-morpholinoethylsulfonylamino)phenyl]-4-oxo-1H-quinoline-3-carboxamide] | 25 to 100
23 | COC(=O)c1cccc(-c2ccccc2NC(=O)c2c[nH]c3ccccc3c2=O)c1 [Compound 68, 3-[2-[(4-oxo-1H-quinolin-3-yl)carbonylamino]phenyl]benzoic acid methyl ester] | 25 to 100
24 | CC(C)(C)c1ccc(NC(=O)c2cnc3ccccc3c2OCc2ccccc2)cc1O [Compound 275, 4-Benzyloxy-N-(3-hydroxy-4-tert-butyl-phenyl)-quinoline-3-carboxamide] | 25 to 100
25 | CC(C)(C)c1cc(C(F)(F)F)c(NC(=O)c2c[nH]c3ccccc3c2=O)cc1O [Compound 266, N-[5-hydroxy-4-tert-butyl-2-(trifluoromethyl)phenyl]-4-oxo-1H-quinoline-3-carboxamide] | 25 to 100
26 | CCCc1ccc(NC)cc1NC(=O)c1c[nH]c2ccccc2c1=O [Compound 356, N-(5-methylamino-2-propyl-phenyl)-4-oxo-1H-quinoline-3-carboxamide] | 25 to 100
27 | O=C(Nc1cccc(Cc2ccccc2)c1)c1c[nH]c2ccccc2c1=O [Compound 389, N-(3-benzylphenyl)-4-oxo-1H-quinoline-3-carboxamide] | 25 to 100
28 | O=C(Nc1cc2[nH]ccc2cc1Cl)c1c[nH]c2ccccc2c1=O [Compound 32, N-(5-chloro-1H-indol-6-yl)-4-oxo-1H-quinoline-3-carboxamide] | 25 to 100
29 | Cc1cccc(-c2ccccc2NC(=O)c2c[nH]c3ccccc3c2=O)c1C [Compound 401, N-[2-(2,3-dimethylphenyl)phenyl]-4-oxo-1H-quinoline-3-carboxamide] | 25 to 100
30 | Cc1cccc(NC(=O)c2c[nH]c3ccccc3c2=O)c1 [Compound 449, N-(m-tolyl)-4-oxo-1H-quinoline-3-carboxamide] | 25 to 100
31 | C#Cc1ccc(NC(=O)c2c[nH]c3ccccc3c2=O)cc1 [Compound 332, N-(4-ethynylphenyl)-4-oxo-1H-quinoline-3-carboxamide] | 25 to 100
32 | COc1ccc(NC(=O)c2c[nH]c3ccccc3c2=O)cc1OC [Compound 122, N-(3,4-dimethoxyphenyl)-4-oxo-1H-quinoline-3-carboxamide] | < 25
33 | O=C(Nc1ccc2c(c1)OCO2)c1c[nH]c2ccccc2c1=O [Compound 437, N-benzo[1,3]dioxol-5-yl-4-oxo-1H-quinoline-3-carboxamide] | < 25
